Assay results as given in patent publication US6673839B1, “Pharmaceutical compositions with antitumour activity” (Universita' Degli Studi di Catania, priority 1998, dated 2004).

Assays:
Type in all cases: cell-based, human
[1] = system: Cells from Larynx Carcinoma Explant; experiment: In vitro short-term chemosensitivity assay (MTT)
Protocol: (§1) The effects of L-aC on cells from 4 primitive epidermoid carcinomas of the larynx and 1 primitive undifferentiated carcinoma of the nasopharynx were tested.
(§2) Tissue fragments from the tumour mass were mechanically dissociated in Hank's solutions adding an antibiotic and an antifungal to obtain a cell monosuspension free of agglomerates. The resulting suspension was centrifuged at 1200 rpm for 5 minutes and the pellet was resuspended in MEM culture medium supplemented with 10% of patient serum, to obtain a concentration of 10^5 cells/ml. Subsequently, 180 μl of the resulting suspension were dispensed in microplate wells and incubated under 5% CO2 atmosphere at 37° C. for 3 days. After that, the antitumor medicaments were added in the amount of 20 μl for each well, at a concentration of 0.1×, 1× and 10× the maximum serum concentrations that can usually be reached in clinical practice. 24 h after the beginning of the exposure to the antitumour medicament, 100 μl of MTT were added, and after 4 h, a further 150 μl of dimethylsulfoxide were added.
(§3) The optical density was evaluated by a Uniscan microspectrophotometer with a […] wavelength filter. Cytotoxicity was evaluated as percentage of the optical density of the treated sample compared with the optical density of the control.
(§4) Bleomycin (BLEC), […] (CDDP), 5-fluoruracil (5-FU), vincristine (VCR), epidoxorubicin (Epi-Dx) and methotrexate (MTX) were tested for comparison purposes.
(§5) L-aC was tested at the following concentrations: 0.2-2-20 mg/ml.
(§6) In vitro short-term chemosensitivity assay (according to Hill and coll.)
(§7) (Cell Vitality Percentage After Exposure to the Antitumoral)—Raw Data
(Cells from Larynx Carcinoma Explant)

[2] = system: Cells from Nasopharynx Carcinoma Explant; experiment: In vitro short-term chemosensitivity assay (MTT); conditions: Table 1, 24 h
Protocol: as §1, §2, §3, §4, §5, §6, §7
(Cells from Nasopharynx Carcinoma Explant)

[3] = system: cells from 4 primitive epidermoid carcinomas of the larynx and 1 primitive undifferentiated carcinoma of the nasopharynx; experiment: In vitro short-term chemosensitivity assay (MTT), all five explants; conditions: five explants
Protocol: as §1, §2, §3, §4, §5

[4] = 0.1x maximum clinical serum concentration (L-aC tested at 0.2-2-20 mg/ml)
[5] = 1x maximum clinical serum concentration
[6] = 10x maximum clinical serum concentration

For `O=c1[nH]cc(F)c(=O)[nH]1` [5-FU, 5-fluoruracil], the “Cell Vitality Percentage After Exposure” value ([1]; Table 2 explant, 0.1x) was 53%, the “Cell Vitality Percentage After Exposure” value ([1]; Table 2 explant, 1x) was 38% and the “Cell Vitality Percentage After Exposure” value ([1]; Table 2 explant, 10x) was 13%. For the same molecule, the “Cell Vitality Percentage After Exposure” value ([1]; Table 3 explant, 0.1x) was 52%, the “Cell Vitality Percentage After Exposure” value ([1]; Table 3 explant, 1x) was 45% and the “Cell Vitality Percentage After Exposure” value ([1]; Table 3 explant, 10x) was 23%. The “Cell Vitality Percentage After Exposure” value ([1]; Table 4 explant, 0.1x) was 40%, the “Cell Vitality Percentage After Exposure” value ([1]; Table 4 explant, 1x) was 14% and the “Cell Vitality Percentage After Exposure” value ([1]; Table 4 explant, 10x) was 14%. For the same molecule, the “Cell Vitality Percentage After Exposure” value ([1]; Table 5 explant, 0.1x) was 55%, the “Cell Vitality Percentage After Exposure” value ([1]; Table 5 explant, 1x) was 13% and the “Cell Vitality Percentage After Exposure” value ([1]; Table 5 explant, 10x) was 8.2%. The “Cell Vitality Percentage After Exposure” value [2, 4] was 43%, the “Cell Vitality Percentage After Exposure” value [2, 5] was 12% and the “Cell Vitality Percentage After Exposure” value [2, 6] was 5.7%. For the same molecule, the “most active medicaments (cases out of 5)” value [3] was 1/5.

For `N.N.O=C([O-])C1(C(=O)[O-])CCC1.[Pt+2]` [CBP, carboplatin], the “Cell Vitality Percentage After Exposure” value ([1]; Table 2 explant, 0.1x) was 78%, the “Cell Vitality Percentage After Exposure” value ([1]; Table 2 explant, 1x) was 58% and the “Cell Vitality Percentage After Exposure” value ([1]; Table 2 explant, 10x) was 34%. For the same molecule, the “Cell Vitality Percentage After Exposure” value ([1]; Table 3 explant, 0.1x) was 88%, the “Cell Vitality Percentage After Exposure” value ([1]; Table 3 explant, 1x) was 50% and the “Cell Vitality Percentage After Exposure” value ([1]; Table 3 explant, 10x) was 21%. The “Cell Vitality Percentage After Exposure” value ([1]; Table 5 explant, 0.1x) was 72%, the “Cell Vitality Percentage After Exposure” value ([1]; Table 5 explant, 1x) was 53% and the “Cell Vitality Percentage After Exposure” value ([1]; Table 5 explant, 10x) was 45%. For the same molecule, the “Cell Vitality Percentage After Exposure” value [2, 4] was 7.1%, the “Cell Vitality Percentage After Exposure” value [2, 5] was 7% and the “Cell Vitality Percentage After Exposure” value [2, 6] was 6.5%.

In the case of `COc1cccc2c1C(=O)c1c(O)c3c(c(O)c1C2=O)C[C@@](O)(C(=O)CO)C[C@@H]3O[C@H]1C[C@H](N)[C@@H](O)[C@H](C)O1` [Epi-Dx, epidoxorubicin], the “Cell Vitality Percentage After Exposure” value ([1]; Table 2 explant, 0.1x) is reported as 59%, the “Cell Vitality Percentage After Exposure” value ([1]; Table 2 explant, 1x) is reported as 21% and the “Cell Vitality Percentage After Exposure” value ([1]; Table 2 explant, 10x) is reported as 7%. For the same molecule, the “Cell Vitality Percentage After Exposure” value ([1]; Table 3 explant, 0.1x) was 57%, the “Cell Vitality Percentage After Exposure” value ([1]; Table 3 explant, 1x) was 32% and the “Cell Vitality Percentage After Exposure” value ([1]; Table 3 explant, 10x) was 16%. The “Cell Vitality Percentage After Exposure” value ([1]; Table 4 explant, 0.1x) was 16%, the “Cell Vitality Percentage After Exposure” value ([1]; Table 4 explant, 1x) was 8% and the “Cell Vitality Percentage After Exposure” value ([1]; Table 4 explant, 10x) was 8%. For the same molecule, the “Cell Vitality Percentage After Exposure” value ([1]; Table 5 explant, 0.1x) was 60%, the “Cell Vitality Percentage After Exposure” value ([1]; Table 5 explant, 1x) was 21% and the “Cell Vitality Percentage After Exposure” value ([1]; Table 5 explant, 10x) was 18%. For the same molecule, the “Cell Vitality Percentage After Exposure” value [2, 4] was 14%, the “Cell Vitality Percentage After Exposure” value [2, 5] was 7.8% and the “Cell Vitality Percentage After Exposure” value [2, 6] was 4.8%. For the same molecule, the “most active medicaments (cases out of 5)” value [3] was 2/5.

In the case of `CN(Cc1cnc2nc(N)nc(N)c2n1)c1ccc(C(=O)N[C@@H](CCC(=O)O)C(=O)O)cc1` [MTX, methotrexate], the “Cell Vitality Percentage After Exposure” value ([1]; Table 4 explant, 0.1x) is reported as 18%, the “Cell Vitality Percentage After Exposure” value ([1]; Table 4 explant, 1x) is reported as 4% and the “Cell Vitality Percentage After Exposure” value ([1]; Table 4 explant, 10x) is reported as 3.1%. The “Cell Vitality Percentage After Exposure” value [2, 4] was 13.5%, the “Cell Vitality Percentage After Exposure” value [2, 5] was 5% and the “Cell Vitality Percentage After Exposure” value [2, 6] was 3.9%. The “most active medicaments (cases out of 5)” value [3] was 2/5.

In the case of `CC[C@]1(O)C[C@H]2CN(CCc3c([nH]c4ccccc34)[C@@](C(=O)OC)(c3cc4c(cc3OC)N(C=O)[C@H]3[C@@](O)(C(=O)OC)[C@H](OC(C)=O)[C@]5(CC)C=CCN6CC[C@]43[C@@H]65)C2)C1` [VCR, vincristine], the “Cell Vitality Percentage After Exposure” value ([1]; Table 2 explant, 0.1x) is reported as 70%, the “Cell Vitality Percentage After Exposure” value ([1]; Table 2 explant, 1x) is reported as 45% and the “Cell Vitality Percentage After Exposure” value ([1]; Table 2 explant, 10x) is reported as 11%. For the same molecule, the “Cell Vitality Percentage After Exposure” value ([1]; Table 3 explant, 0.1x) was 32%, the “Cell Vitality Percentage After Exposure” value ([1]; Table 3 explant, 1x) was 19% and the “Cell Vitality Percentage After Exposure” value ([1]; Table 3 explant, 10x) was 4.8%. The “Cell Vitality Percentage After Exposure” value ([1]; Table 4 explant, 0.1x) was 1.9%, the “Cell Vitality Percentage After Exposure” value ([1]; Table 4 explant, 1x) was 1.3% and the “Cell Vitality Percentage After Exposure” value ([1]; Table 4 explant, 10x) was 1.3%. For the same molecule, the “Cell Vitality Percentage After Exposure” value ([1]; Table 5 explant, 0.1x) was 23%, the “Cell Vitality Percentage After Exposure” value ([1]; Table 5 explant, 1x) was 4.2% and the “Cell Vitality Percentage After Exposure” value ([1]; Table 5 explant, 10x) was 2%. The “Cell Vitality Percentage After Exposure” value [2, 4] was 7.8%, the “Cell Vitality Percentage After Exposure” value [2, 5] was 4.6% and the “Cell Vitality Percentage After Exposure” value [2, 6] was 3.8%. The “most active medicaments (cases out of 5)” value [3] was 4/5.

Bleomycin [BLM] was tested, and the “Cell Vitality Percentage After Exposure” value ([1]; Table 2 explant, 0.1x) was 55%, the “Cell Vitality Percentage After Exposure” value ([1]; Table 2 explant, 1x) was 36% and the “Cell Vitality Percentage After Exposure” value ([1]; Table 2 explant, 10x) was 17%. For the same molecule, the “Cell Vitality Percentage After Exposure” value ([1]; Table 3 explant, 0.1x) was 81%, the “Cell Vitality Percentage After Exposure” value ([1]; Table 3 explant, 1x) was 68% and the “Cell Vitality Percentage After Exposure” value ([1]; Table 3 explant, 10x) was 34%. The “Cell Vitality Percentage After Exposure” value ([1]; Table 4 explant, 0.1x) was 82%, the “Cell Vitality Percentage After Exposure” value ([1]; Table 4 explant, 1x) was 79% and the “Cell Vitality Percentage After Exposure” value ([1]; Table 4 explant, 10x) was 62%. For the same molecule, the “Cell Vitality Percentage After Exposure” value ([1]; Table 5 explant, 0.1x) was 60%, the “Cell Vitality Percentage After Exposure” value ([1]; Table 5 explant, 1x) was 35% and the “Cell Vitality Percentage After Exposure” value ([1]; Table 5 explant, 10x) was 31%.
